Data as given in PMC7504215, “Copper(II) Complexes with Mixed Heterocycle Ligands as Promising Antibacterial and Antitumor Species” (Molecules, 2020).
≈ marks a conversion by molar mass, not a printed value.

Tests used:
MRSA [1] = experiment: MBEC assay, micro-titer method (biofilm); assay type: cell-based, Staphylococcus aureus
Procedure: (§1) The antibacterial assays were performed on Gram-negative (Escherichia coli ATCC 25922, E. coli 5, Pseudomonas aeruginosa ATCC 27853, P. aeruginosa ATCC 9027) and Gram-positive (Staphylococcus aureus ATCC 25923, S. aureus ATCC 6538, MRSA (Meticillin-resistant S. aureus) 388, ATCC, American Type Culture Collection) bacterial strains. Microbial suspensions (1.5 × 10^8 CFU/mL; colony forming units (CFU)) corresponding to 0.5 McFarland density obtained from 15 to 18-h bacterial cultures developed on solid media were used. The antimicrobial activity was tested on Mueller–Hinton agar medium.
(§2) The assessment of the complexes’ influence on the microbial ability to colonize an inert substratum with the establishment of the minimal biofilm eradication concentration (MBEC) was performed by the micro-titer method, following previously described protocols. The absorbance at 490 nm was measured with an Apollo LB 911ELISA (Berthold Technologies GmbH & Co. KG, Waltham, MA, USA) reader. All experiments were performed in triplicates.

S. aureus 25923 [2] = experiment: MBEC assay, micro-titer method (biofilm); assay type: cell-based, Staphylococcus aureus
Procedure: as §1, §2

S. aureus 6538 [3] = experiment: MBEC assay, micro-titer method (biofilm); assay type: cell-based, Staphylococcus aureus
Procedure: as §1, §2

E. coli 25922 [4] = experiment: MIC assay, liquid medium microdilution (planktonic growth); assay type: cell-based, Escherichia coli; settings: Escherichia coli; E. coli 25922, 24 h at 37 °C; read-out: MIC
Procedure: as §1
(§3) The quantitative assay of the antimicrobial activity was performed by the liquid medium microdilution method, in 96-well multi-well plates, to establish the minimal inhibitory concentration (MIC). For this purpose, serial two-fold dilutions of the compounds ranging between 1.000 and 1.95 μg/mL were performed in a 200 μL volume of broth and each well was seeded with 50 μL microbial inoculums. Sterility control (wells containing only culture medium) and culture controls (wells containing culture medium seeded with the microbial inoculum) were used. The influence of the DMSO solvent was also quantified in a series of wells containing DMSO, diluted accordingly with the dilution scheme used for the complexes. The plates were incubated for 24 h at 37 °C, and MIC values were considered as the lowest concentration of the tested compound that inhibited the visible growth of the microbial overnight cultures.

E. coli 5 ESBL [5] = experiment: as above; assay type: cell-based, Escherichia coli; settings: Escherichia coli; E. coli 5 ESBL, 24 h at 37 °C; read-out: MIC
Procedure: as §1, §3

P. aeruginosa 9027 [6] = experiment: as above; assay type: cell-based, Pseudomonas aeruginosa; settings: Pseudomonas aeruginosa; P. aeruginosa 9027 (multi-drug-resistant), 24 h at 37 °C; read-out: MIC
Procedure: as §1, §3

P. aeruginosa 27853 [7] = experiment: as above; assay type: cell-based, Pseudomonas aeruginosa; settings: Pseudomonas aeruginosa; P. aeruginosa 27853, 24 h at 37 °C; read-out: MIC
Procedure: as §1, §3

P. aeruginosa 9027 [8] = experiment: MBEC assay, micro-titer method (biofilm); assay type: cell-based, Pseudomonas aeruginosa
Procedure: as §1, §2

P. aeruginosa 27853 [9] = experiment: MBEC assay, micro-titer method (biofilm); assay type: cell-based, Pseudomonas aeruginosa
Procedure: as §1, §2

MRSA [10] = experiment: MIC assay, liquid medium microdilution (planktonic growth); assay type: cell-based, Staphylococcus aureus; settings: Staphylococcus aureus, 24 h at 37 °C, read-out: MIC
Procedure: as §1, §3

S. aureus 25923 [11] = experiment: as above; assay type: cell-based, Staphylococcus aureus; settings: Staphylococcus aureus; S. aureus 25923, 24 h at 37 °C; read-out: MIC
Procedure: as §1, §3

S. aureus 6538 [12] = experiment: as above; assay type: cell-based, Staphylococcus aureus; settings: Staphylococcus aureus; S. aureus 6538, 24 h at 37 °C; read-out: MIC
Procedure: as §1, §3

E. coli 25922 [13] = experiment: MBEC assay, micro-titer method (biofilm); assay type: cell-based, Escherichia coli
Procedure: as §1, §2

E. coli 5 ESBL [14] = experiment: MBEC assay, micro-titer method (biofilm); assay type: cell-based, Escherichia coli
Procedure: as §1, §2

[15] = Hemolytic activity (adapted ASTM F 756-00); assay type: cell-based; settings: human red blood cells, 4 h at 37 °C, threshold 5% (ASTM F 756-00)
Procedure: The hemolytic activity of the compounds was determined using an adapted protocol of ASTM F 756–00 standard based on hemoglobin release from human red blood cells (hRBCs) resulting after cell lyses. Briefly, the blood samples were collected from healthy volunteers, diluted to a concentration of hemoglobin ~10 mg/mL with phosphate buffer saline (PBS) and then incubated with various concentrations of compounds for 4 h at 37 °C. After 4 h, the cells were centrifuged, the supernatant was collected, transferred into 96-well tissue culture plates and mixed with Drabkin reagent, which converts hemoglobin to cyanmethemoglobin (absorption peak at 540 nm). After 15 min, the absorbance of the samples was read at 570 nm using a plate reader. The obtained data was background corrected and used to calculate the hemolytic index as percentage of the hemoglobin released after the treatment with the tested compounds, relative to control samples. The hRBCs in PBS and distilled water were used as negative and positive controls.

BJ cells = experiment: Phalloidin staining and cell imaging (cytoskeleton, nucleus); assay type: cell-based, Human; settings: 24 h, 6 μg/mL
Procedure: (§4) Cytoskeleton actin filaments of BJ and B16 cells were stained with phalloidin-FITC (Sigma-Aldrich, USA) according to the manufacturer’s protocol. Briefly, cells were washed with PBS (5 min, 3 times), fixed for 5 min with 3% paraformaldehyde, washed three times with PBS, permeabilized with 0.1% Triton X-100 in PBS for 15 min, washed three times with PBS, stained with 20 μg mL^−1 phalloidin-FITC at room temperature for 1 h and washed again three times with PBS. Cell nucleus was stained with 8 μM of Hoechst 33342 solution for 10 min, washed three times with PBS and finally, mounted and sealed on glass slides with FluorSave™ Reagent (Merck Millipore, Germany). The fluorescence images were acquired using an Andor DSD2 Confocal Unit (Andor, Ireland), mounted on an epifluorescence microscope, Olympus BX-51 (Olympus, Germany), equipped with a 40x and 100x objective and an appropriate DAPI/Hoechst filter cube (excitation filter 390/40 m, dichroic mirror 405 nm and emission filter 452/45 nm) and GFP/FITC filter cube (excitation filter 466/40 nm, dichroic mirror 488 nm and emission filter 525/54 nm).

B16 cells = experiment: as above; assay type: cell-based, Mouse; settings: 24 h, 6 μg/mL
Procedure: as §4

[16] = tested on: normal BJ cell (human fibroblast); experiment: MTT cell viability assay; assay type: cell-based; settings: any tested concentration (0–25 μg/mL), 24 and 48 h
Procedure: (§5) The cytotoxicity of ligand and copper(II) complexes was tested on normal BJ cell as well as on B16 (melanoma) tumor cells, which were grown for 48 h in culture medium containing the tested complexes in 0–25 μg/mL concentration range.
(§6) Human fibroblast cells (BJ-ATCC CRL-2522, Manassas, VA, USA) were grown in minimal essential medium (MEM) supplemented with 2 mM L-Glutamine, 10% fetal calf serum (FCS), 100 units/mL of penicillin and 100 µg/mL of streptomycin at 37 °C in a humidified incubator under an atmosphere containing 5% CO2. Mouse melanoma cells (B16-ATCC CRL-6475, Manassas, VA, USA) were grown in DMEM (Dulbecco’s Modified Eagle Medium) supplemented with similar reagents as MEM. All cell cultivation media and reagents were purchased from Biochrom AG (Berlin, Germany) and Sigma-Aldrich (Darmstadt, Germany).
(§7) Cell viability was evaluated using 3-(4,5-dimethylthiazol-2-yl)-2,5-diphenyltetrazolium bromide (MTT) assay, as described previously. First, the cells were seeded in 96-well plates (20,000 cells/well) and cultured for 24 h in medium. After overnight incubation, the medium was changed and the investigated sample in concentration varying from […] was added for 24 h. The negative control was represented by cells cultivated in medium without the investigated compounds. Following incubation, the medium was changed and the MTT solution was added to each well to a final concentration of 1 mg/mL and incubated for additional 4 h, at 37 °C. Finally, the medium was collected and DMSO was used to dissolve the insoluble formazan product. The absorbance of the samples was recorded at 570 nm using a plate reader Mithras 940 (Berthold). The data were corrected for the background and the percentage of viable cells was obtained using the equation:Cell viability = [(A570 of treated cells)/(A570 of untreated cells)] × 100%
(§8) The half-maximal inhibitory concentration (IC50) was determined by fitting the data with a logistical sigmoidal equation using the software Origin 8.1 from Microcal Inc. (Los Angeles, CA, USA).

[17] = tested on: B16 (melanoma) tumor cells; experiment: MTT cell viability assay; assay type: cell-based, Mouse; settings: any tested concentration (0–25 μg/mL), 24 and 48 h
Procedure: as §5, §6, §7, §8

[18] = tested on: human colon adenocarcinoma (HT 29) cell; set-up: method as in doi:10.1007/s10973-016-5425-7; settings: cited from earlier work

SMILES	MBEC value (MRSA [1]) [mM]	MBEC value (S. aureus 25923 [2]) [mM]	MBEC value (S. aureus 6538 [3]) [mM]	MIC (E. coli 25922 [4]) [mM]	MIC (E. coli 5 ESBL [5]) [mM]	MIC (P. aeruginosa 9027 [6]) [mM]	MIC (P. aeruginosa 27853 [7]) [mM]	MBEC value (P. aeruginosa 9027 [8]) [mM]	MBEC value (P. aeruginosa 27853 [9]) [mM]	MIC (MRSA [10]) [mM]	MIC (S. aureus 25923 [11]) [mM]	MIC (S. aureus 6538 [12]) [mM]	MBEC value (E. coli 25922 [13]) [mM]	MBEC value (E. coli 5 ESBL [14]) [mM]	hemolysis at 4 h, 25 µg/mL [15] [%]	Cell morphology (cytoskeleton and nucleus) (BJ cells)	Cell morphology (cytoskeleton and nucleus) (B16 cells)	Effect on viability of BJ cells [16]	Effect on viability of B16 cells [17]	Antiproliferative effect [18]
c1cnc2c(c1)ccc1cccnc12 [phen, 1,10-phenanthroline]	7.00	7.00	7.00	3.5 (≈ 631 µg/mL)	3.5 (≈ 631 µg/mL)	3.5 (≈ 631 µg/mL)	7 (≈ 1260 µg/mL)	3.50	7.00	7 (≈ 1260 µg/mL)	7 (≈ 1260 µg/mL)	7 (≈ 1260 µg/mL)	7.00	3.50	–	–	–	–	–	–
Cc1cc(-c2ccccc2)nc2ncnn12 [pmtp, 5-phenyl-7-methyl-1,2,4-triazolo[1,5-a]pyrimidine]	6.00	6.00	3.00	3 (≈ 631 µg/mL)	3 (≈ 631 µg/mL)	3 (≈ 631 µg/mL)	3 (≈ 631 µg/mL)	1.50	3.00	6 (≈ 1260 µg/mL)	6 (≈ 1260 µg/mL)	3 (≈ 631 µg/mL)	6.00	3.00	0.61 ± 0.05	does not alter its morphology	does not alter the morphology of the cells	did not affect the viability of the two cell lines	did not affect the viability of the two cell lines	–
CC(=O)[O-].CC(=O)[O-].Cc1cc(-c2ccccc2)nc2ncnn12.[Cu+2] [[Cu(pmtp)(CH3COO)2]·0.5H2O]	–	–	–	–	–	–	–	–	–	–	–	–	–	–	–	–	–	–	–	dose-dependent antiproliferative effect
